# Data as given in US20250325467A1, “COMPOSITIONS FOR PREVENTING OR TREATING SKIN AGING” (ESTETRA SRL, priority 2021, published 2025).
# “Also recorded” adds a separate entry of the source.
# Columns and labels:
# [1] = system: Normal Human Epidermal Keratinocytes (NHEKs); experiment: Colonization of a standard acellular area (IBIDI chamber gap closure) by keratinocytes; type: cell-based; conditions: vs ethanol control, 6 h and 24 h; for NHEK Proliferation & Migration (colonization of the acellular area): absence of MMC; for NHEK Migration (+MMC) (colonization of the acellular area): presence of MMC
# Protocol: The study consists in an in vitro assay aiming to evaluate the properties of E4 and E2 at 4 concentrations each on keratinocytes and fibroblasts. In this assay, the measurement of the colonization of a standard acellular surface generated from a confluent monolayer of cells using a dedicated culture device (IBIDI chamber) is performed. The assay is performed in absence and in presence of a proliferation inhibitor to focus on cell proliferation and migration or on migration only, respectively.
# The study was performed using cultures of Normal Human foreskin-derived Epidermal Keratinocytes (NHEKs, Lonza). The cells were grown in serum free Epilife medium (ThermoFisher Scientific) supplemented with Human Keratinocyte Growth Supplement (HKGS, ThermoFisher Scientific) and antibiotics. The cells were maintained in a humidified incubator at 37° C. with a 5% CO2 atmosphere.
# Cells were plated in 2-well silicone inserts with a defined cell free gap (IBIDI chambers; IBIDI GmbH, 80209) that was previously inserted on 12-well culture plates. This culture device allows to create a standardized 500 μm±100 μm cell free gap for monitoring cell colonization. 24 h after seeding, when the culture reached high confluency, cells in the insert were treated, or not, with mitomycin C (MMC) at 10 μg/ml during 2 h. After these 2 hours, the insert was removed, and cells were treated with E2 or E4 in presence or not of MMC for additional 2 h. Then, if appropriate, the culture medium was removed and cells were treated with E2 or E4 for 22 h, in absence of MMC.
# For the assay, keratinocytes were plated in Epilife medium without HKGS and all the treatments were performed in this medium. Fibroblasts were plated in DMEM medium containing only 2,5% of FBS and the treatments were performed in absence of FBS.
# E2 and E4 were applied at 4 concentrations each (10^−7M, 10^−8M, 10^−9M, 10^−10M). In parallel, cells were treated with a positive control (HKGS 1% for human keratinocytes and PDGF-BB at 10 ng/ml for human fibroblasts).
# To monitor cell colonization and to evaluate the gap closure rate, pictures of the gap were taken after different times: at time 0 h, corresponding to the beginning of the treatment with E2 or E4 and to the removal of the culture insert, at time 6 h and at time 24 h (corresponding to the end of the treatments with E2 or E4). Pictures were taken with a microscope Zeiss (Axiover 25-10× objective) and with a camera Invenio2EIII (DeltaPix—Lux-Optic). The colonized areas were quantified from the pictures by the use of the WimAsis platform—WimScratch software. For each insert, 3 pictures were taken at each time. As each condition was performed in triplicates, it means a total of 9 pictures per condition and per time point of acquisition
# [2] = system: IL-6 release from NHEKs; experiment: PMA/A23187-induced IL-6 release from NHEKs (ELISA, normalized to viability); type: cell-based, human; conditions: 24 h, vs stimulated EtOH 0.1% condition
# Protocol: The Normal Human foreskin-derived Epidermal Keratinocytes (NHEKs, Lonza, 00192906), isolated from foreskin of 3 Caucasian donors, were grown in Epilife medium (Fisher Scientific, M-EPI-500-A) supplemented with Human Keratinocyte Growth Supplement (HKGS, Fisher Scientific, S-001-5) and antibiotics (Gentamycin, Fisher Scientific, 15710-049). The cells were maintained in a humidified incubator at 37° C. with a 5% CO2 atmosphere.
# E4 and E2, provided as powder, were dissolved in 100% ethanol at 0.1M. They were then further diluted in ethanol and in culture medium to reach the appropriate concentrations. […] Practically, stock solutions 1000-fold concentrated were prepared in 100% ethanol, aliquoted and stored at −20° C. until cell application.
# In order to induce the release of IL-6, NHEKs were exposed for 24 h with phorbol myristate acetate (PMA) at 10 ng/mL, in combination with calcium ionophore A23187 (Sigma Aldrich, C5722) at 2 μM. The treatments with the test or reference items were performed simultaneously with the inflammatory challenge. […] E4 was applied at 10^−4, 10^−5, 10^−6, 10^−7 and 10^−8 M and E2 at 10^−5, 10^−6, 10^−7, 10^−8 and 10^−9 M EtOH at 0.1% was tested as solvent control. Dexamethasone at 10 μM was used as anti-inflammatory reference. At the end of 24 h treatment, supernatants were harvested and stored at −20° C., and cell viability assay was assessed by MTS (see section 5). The kinetics of the treatments is outlined in FIG. 12. All the treatments were performed in triplicates (n=3).
# The quantification of the release of inflammatory markers was performed using specific ELISA kits, based on standard curves, according to supplier's specifications. The results were then normalized to the corresponding cell viability (obtained by MTS assay).
# The supplier's reference of the kits used for IL-6 quantification is as follows: IL-6, BioTechne, D6050.
# At the end of the treatments and culture media collection, the viability of the cells was evaluated using the MTS (3-(4,5-dimethythiazol-2-yl)-5-(3-carboxy-methoxyphenyl)-2-(4-sulfophenyl)-2H-tetrazolium) assay. The effects of the treatments were compared to the untreated control condition and to the solvent control (EtOH 0.1%). The viability data were used in order to normalize the quantities of released inflammatory mediators.
# NHEKs were treated as described in the methodology section. The quantification of IL-6 by ELISA was performed from the collected supernatants, following the instructions of the kit provider. Only 3 concentrations of the test items (chosen in accordance with the Sponsor following the results of the viability assay) were assessed in the ELISA.
# [3] = system: mouse fibroblasts; experiment: Fibroblast monolayer scratch assay, mouse fibroblasts; type: cell-based; conditions: mouse fibroblasts (female C57Bl/6); 10^−7M; pilot experiments
# Protocol: (§1) Confluent wells of both primary keratinocytes and fibroblasts were subjected to a highly validated scratch wounding procedure (using a 1 mL sterile filter tip). Post-scratching, cells were rinsed with DPBS and cell-specific media containing treatments added to each well. Cells were imaged on a ptychographic live cell imaging platform (Livecyte 2™, Phasefocus) for 24-48 hours. Automated tracking of individual unlabeled cells will be combined with 3D cell measurements to quantify a range of wound-relevant cell parameters including scratch closure rate.
# (§2) Dose range finding experiments were conducted with E4 (10^−10M to 10^−6M) and E2 with and without Mitomycin C (MMC, to inhibit proliferation) using vehicle as negative controls.
# [4] = system: primary human epidermal keratinocytes; experiment: Keratinocyte migration scratch assay; type: cell-based; conditions: 15% HKGS; E4 10^−10M and 10^−7M; compared with E2
# Protocol: Human skin was transferred to the laboratory in holding media (DMEM containing 4% penicillin-streptomycin and Amphotericin B solution) within 30 minutes of collection. Once defatted, the skin was rinsed in HBSS with 4% PSA followed by DPBS without antibiotics, then cut into thin strips and floated on 0.2% Dispase II in DPBS overnight at 4° C., followed by manual separation of the epidermis from the dermis. Primary human epidermal keratinocytes and primary human dermal fibroblasts were then isolated.
# as §1, §2
structure (smiles),measurement,setting,value
"C[C@]12CC[C@@H]3c4ccc(O)cc4CC[C@H]3[C@@H]1[C@@H](O)[C@@H](O)[C@@H]2O [E4, 1,3,5 (10)-estratrien-3,15alpha,16alpha,17beta-tetrol]",NHEK Proliferation & Migration (colonization of the acellular area),[1]; 10^−7M,significantly increased the colonization of the acellular area; also recorded: significantly increases the surface colonized
same,NHEK Migration (+MMC) (colonization of the acellular area),[1]; 10^−7M,significantly increased the colonization of the acellular area; also recorded: significantly increases the surface colonized
same,NHEK Proliferation & Migration (colonization of the acellular area),[1]; 10^−10M,significantly increased the colonization of the acellular area; also recorded: significantly increases the surface colonized
same,NHEK Migration (+MMC) (colonization of the acellular area),[1]; 10^−10M,significantly increased the colonization of the acellular area; also recorded: significantly increases the surface colonized
same,PMA/A23187-induced IL-6 release,[2]; 10^−5 M,significantly and strongly decreased the release of IL-6; also recorded: strongly and significantly diminished
same,PMA/A23187-induced IL-6 release,[2]; 10^−6 M,significantly and strongly decreased the release of IL-6; also recorded: strongly and significantly diminished
same,PMA/A23187-induced IL-6 release,[2]; 10^−7 M,significantly and strongly decreased the release of IL-6; also recorded: strongly and significantly diminished
same,fibroblast migration / in vitro wound closure,[3],promotes in vitro wound closure to a similar extent as E2; also recorded: as effective as E2 in promoting fibroblast migration
same,impact on keratinocyte migration (wound closure),[4],higher than the impact of E2
